Experiment [1] addresses T1, human Smo (amino acids 181-787) (Homo sapiens, UniProt Q99835).
T1 construct: expressed in transfected cells; membrane preparation
The experiment in a line: Smo radioligand competition binding assay (displacement of 3H-PF-03451358 from HEK293 membranes). The conditions noted are these: for inhibition at 0.05 µM: 0.05 μM test compound, displacement of 3H-PF-03451358, read-out: SMO % inh. @ 0.05 μM; for IC50: radioligand competition binding. The gist of the method:
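Displacement of 3 nM tritiated PF-03451358 measured by filtration and scintillation counting after 2 h at room temperature, using 40 μg/well HEK293 membranes bearing cell-surface Smo 181-787, pH 7.5 buffer. Specific binding defined against 30 μM unlabelled ligand; IC50 via variable-slope sigmoidal fit.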
(Loss of bound radioactivity is the signal in a displacement assay; it reports binding, not function.)

Another experiment concerns Gli-Luc/MEF cells (Smo). The experiment can be described thus: Gli-Luc/MEF assay (Shh-stimulated luciferase reporter under the Gli response element). It is filed as cell-based, mouse. As to conditions: Mus musculus, MEF, 48 h. The gist of the method:
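IC50 derived from luminescence (Bright-Glo) after 48 h at 37° C, 5% CO2, with compound at […] (3-fold dilutions) added together with mouse Shh at 2 μg/mL final. Cells: MEFs from Gli-Luc transgenic mice.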
(Reporter assays use an easily measured gene product as a stand-in for the process of interest.)

T1 sequence (Q99835 181-787): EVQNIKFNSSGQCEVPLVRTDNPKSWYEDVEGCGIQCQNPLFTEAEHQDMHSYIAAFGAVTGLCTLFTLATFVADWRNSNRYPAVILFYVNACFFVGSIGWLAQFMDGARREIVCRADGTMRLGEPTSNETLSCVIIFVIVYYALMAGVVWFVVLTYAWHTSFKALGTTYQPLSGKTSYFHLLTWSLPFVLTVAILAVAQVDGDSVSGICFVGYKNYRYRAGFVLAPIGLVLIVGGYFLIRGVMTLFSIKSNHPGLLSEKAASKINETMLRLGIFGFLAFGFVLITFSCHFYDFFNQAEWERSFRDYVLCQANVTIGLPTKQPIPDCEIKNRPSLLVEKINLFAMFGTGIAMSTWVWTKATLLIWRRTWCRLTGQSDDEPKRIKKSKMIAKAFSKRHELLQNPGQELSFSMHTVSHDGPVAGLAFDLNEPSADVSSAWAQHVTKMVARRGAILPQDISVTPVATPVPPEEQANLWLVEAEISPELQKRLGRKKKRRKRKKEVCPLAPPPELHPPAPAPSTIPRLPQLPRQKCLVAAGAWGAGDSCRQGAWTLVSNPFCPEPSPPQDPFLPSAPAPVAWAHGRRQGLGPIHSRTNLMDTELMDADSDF

As for `Cn1ccnc1C(O)C1CCN(c2cc(-c3nc4ccccc4n3C)c(Cl)cn2)CC1` (stereo not drawn) [Example A-73, {1-[5-chloro-4-(1-methyl-1H-benzimidazol-2-yl)pyridin-2-yl]piperidin-4-yl}(1-methyl-1H-imidazol-2-yl)methanol], in experiment [1], the inhibition at 0.05 µM was determined as 93% and the IC50 was 45 nM. Moreover, in the experiment with Gli-Luc/MEF cells (Smo), half-maximal inhibition (IC50) was put at 25 nM.
Regarding `Cn1c(-c2cc(N3CCC(C(=O)NCCO)CC3)ncc2Cl)nc2ccccc21` [Example A-74, 1-[5-chloro-4-(1-methyl-1H-benzimidazol-2-yl)pyridin-2-yl]-N-(2-hydroxyethyl)piperidine-4-carboxamide], in experiment [1], the inhibition at 0.05 µM worked out at 93% and the IC50 was determined as 27 nM. This compound also had an IC50 with Gli-Luc/MEF cells (Smo) of 11 nM.
The corresponding values for `Cn1c(-c2cc(N3CCC(C#N)CC3)ncc2Cl)nc2ccccc21` [Example A-75, 1-[5-chloro-4-(1-methyl-1H-benzimidazol-2-yl)pyridin-2-yl]piperidine-4-carbonitrile] are 92%, 23 nM and 11 nM.
The corresponding values for `Cn1c(-c2cc(N3CCOC(c4nc(C5CC5)no4)C3)ncc2Cl)nc2ccccc21` (stereo not drawn) [Example A-76, 2-{5-chloro-2-[2-(3-cyclopropyl-1,2,4-oxadiazol-5-yl)morpholin-4-yl]pyridin-4-yl}-1-methyl-1H-benzimidazole] are 92%, 35 nM and 18 nM.
As to `CN1CC2(CCN(c3cc(-c4nc5ccccc5n4C)c(Cl)cn3)CC2)CC1=O` [Example A-77, 8-[5-chloro-4-(1-methyl-1H-benzimidazol-2-yl)pyridin-2-yl]-2-methyl-2,8-diazaspiro[4.5]decan-3-one], in experiment [1], the inhibition at 0.05 µM was found to be 92% and the IC50 stood at 29 nM. For the same compound, the IC50 with Gli-Luc/MEF cells (Smo) is 15 nM.
On to `Cn1nc2n(c1=O)CCN(c1cc(-c3nc4ccccc4n3C)c(Cl)cn1)CC2` [Example A-78, 7-[5-chloro-4-(1-methyl-1H-benzimidazol-2-yl)pyridin-2-yl]-2-methyl-2,5,6,7,8,9-hexahydro-3H-[1,2,4]triazolo[4,3-d][1,4]diazepin-3-one], for which, in experiment [1], the inhibition at 0.05 µM stood at 92%. Besides, the IC50 stood at 14 nM in experiment [1] and 11 nM in the experiment with Gli-Luc/MEF cells (Smo).
With `Cn1c(-c2cc(N3CCC(OCCO)CC3)ncc2Cl)nc2ccccc21` [Example A-79, 2-({1-[5-chloro-4-(1-methyl-1H-benzimidazol-2-yl)pyridin-2-yl]piperidin-4-yl}oxy)ethanol], in experiment [1], the inhibition at 0.05 µM was 92% and the IC50 came out at 23 nM. Further, the IC50 in the experiment with Gli-Luc/MEF cells (Smo) worked out at 7 nM.
The corresponding values for `Cn1c(-c2cc(N3CCC(C(=O)N4CCOCC4)CC3)ncc2Cl)nc2ccccc21` [Example A-80, 2-{5-chloro-2-[4-(morpholin-4-ylcarbonyl)piperidin-1-yl]pyridin-4-yl}-1-methyl-1H-benzimidazole] are 92%, 45 nM and 8 nM.
In the case of `Cn1c(-c2cc(N3CCC(N4CCCC4=O)CC3)ncc2Cl)nc2ccccc21` [Example A-81, 1-{1-[5-chloro-4-(1-methyl-1H-benzimidazol-2-yl)pyridin-2-yl]piperidin-4-yl}pyrrolidin-2-one], the inhibition at 0.05 µM in experiment [1] was 91%. Moreover, the figures for the IC50 (in experiment [1]; in the experiment on Gli-Luc/MEF cells (Smo)) were 24 nM and 10 nM, respectively.
For `Cn1c(-c2cc(N3C[C@@H](CO)[C@@H](CO)C3)ncc2Cl)nc2ccccc21` [Example A-82, {(3R,4S)-1-[5-chloro-4-(1-methyl-1H-benzimidazol-2-yl)pyridin-2-yl]pyrrolidine-3,4-diyl}dimethanol], in experiment [1], the inhibition at 0.05 µM amounted to 91% and the IC50 turned out to be 43 nM. The IC50 with Gli-Luc/MEF cells (Smo) came to 16 nM.
`COCCc1nnc2n1CCN(c1cc(-c3nc4ccccc4n3C)c(Cl)cn1)C2` [Example A-83, 7-[5-chloro-4-(1-methyl-1H-benzimidazol-2-yl)pyridin-2-yl]-3-(2-methoxyethyl)-5,6,7,8-tetrahydro[1,2,4]triazolo[4,3-a]pyrazine]: the inhibition at 0.05 µM in experiment [1] is 91%. In addition, the IC50 came to 49 nM in experiment [1] and 23 nM in the experiment with Gli-Luc/MEF cells (Smo).
The corresponding values for `CNC(=O)COC1CCN(c2cc(-c3nc4ccccc4n3C)c(Cl)cn2)CC1` [Example A-84, 2-({1-[5-chloro-4-(1-methyl-1H-benzimidazol-2-yl)pyridin-2-yl]piperidin-4-yl}oxy)-N-methylacetamide] are 91%, 21 nM and 42 nM.
As for `Cn1c(-c2cc(N3CCC(CO)(CCO)C3)ncc2Cl)nc2ccccc21` (stereo not drawn) [Example A-85, 2-{1-[5-chloro-4-(1-methyl-1H-benzimidazol-2-yl)pyridin-2-yl]-3-(hydroxymethyl)pyrrolidin-3-yl}ethanol], in experiment [1], the inhibition at 0.05 µM came to 90% and the IC50 came out at 17 nM. The compound also came in with a 50% inhibitory concentration (IC50) in the experiment on Gli-Luc/MEF cells (Smo) of 7 nM.
Take `Cn1c(-c2cc(N3CCN(C4CCS(=O)(=O)C4)CC3)ncc2Cl)nc2ccccc21` (stereo not drawn) [Example A-86, 2-{5-chloro-2-[4-(1,1-dioxidotetrahydro-3-thienyl)piperazin-1-yl]pyridin-4-yl}-1-methyl-1H-benzimidazole]: in experiment [1], the inhibition at 0.05 µM came out at 90% and the IC50 stood at 61 nM. The same compound registered an IC50 in the experiment with Gli-Luc/MEF cells (Smo) of 43 nM.
Take `CC(=O)NCC1CCN(c2cc(-c3nc4ccccc4n3C)c(Cl)cn2)CC1` [Example A-87, N-({1-[5-chloro-4-(1-methyl-1H-benzimidazol-2-yl)pyridin-2-yl]piperidin-4-yl}methyl)acetamide]: the inhibition at 0.05 µM in experiment [1] came out at 89%. The values for the IC50 (in experiment [1]; in the experiment on Gli-Luc/MEF cells (Smo)) were 58 nM and 9 nM, respectively.
The corresponding values for `Cn1c(-c2cc(N3CCC(O)(CN4CCOCC4)CC3)ncc2Cl)nc2ccccc21` [Example A-88, 1-[5-chloro-4-(1-methyl-1H-benzimidazol-2-yl)pyridin-2-yl]-4-(morpholin-4-ylmethyl)piperidin-4-ol] are 89%, 61 nM and 28 nM.
As for `Cn1c(-c2cc(N3CCS(=O)(=O)CC3)ncc2Cl)nc2ccccc21` [Example A-89, 2-[5-chloro-2-(1,1-dioxidothiomorpholin-4-yl)pyridin-4-yl]-1-methyl-1H-benzimidazole], the inhibition at 0.05 µM in experiment [1] is 88%. The IC50 in experiment [1] turned out to be 40 nM; with Gli-Luc/MEF cells (Smo) it was 44 nM.
With `COC1CCOC2(CCN(c3cc(-c4nc5ccccc5n4C)c(Cl)cn3)CC2)C1` (stereo not drawn) [Example A-90, 9-[5-chloro-4-(1-methyl-1H-benzimidazol-2-yl)pyridin-2-yl]-4-methoxy-1-oxa-9-azaspiro[5.5]undecane], in experiment [1], the inhibition at 0.05 µM was 88% and the IC50 came out at 71 nM. Besides, the half-maximal inhibitory concentration (IC50) in the experiment on Gli-Luc/MEF cells (Smo) was found to be 16 nM.
For the compound `Cn1c(-c2cc(N3CCC(N4CCNC(=O)CC4)CC3)ncc2Cl)nc2ccccc21` [Example A-91, 1-{1-[5-chloro-4-(1-methyl-1H-benzimidazol-2-yl)pyridin-2-yl]piperidin-4-yl}-1,4-diazepan-5-one], in experiment [1], the inhibition at 0.05 µM turned out to be 88% and the IC50 turned out to be 55 nM. The compound also came in with an IC50 in the experiment on Gli-Luc/MEF cells (Smo) of 16 nM.
Consider `COCc1nnc2n1CCN(c1cc(-c3nc4ccccc4n3C)c(Cl)cn1)CC2` [Example A-93, 7-[5-chloro-4-(1-methyl-1H-benzimidazol-2-yl)pyridin-2-yl]-3-(methoxymethyl)-6,7,8,9-tetrahydro-5H-[1,2,4]triazolo[4,3-d][1,4]diazepine], for which, in experiment [1], the inhibition at 0.05 µM is 87% and the IC50 turned out to be 53 nM. The same compound had an IC50 with Gli-Luc/MEF cells (Smo) of 31 nM.
For `Cn1c(-c2cc(N3CC(O)C3)ncc2Cl)nc2ccccc21` [Example A-94, 1-[5-chloro-4-(1-methyl-1H-benzimidazol-2-yl)pyridin-2-yl]azetidin-3-ol], in experiment [1], the inhibition at 0.05 µM amounted to 87% and the IC50 turned out to be 87 nM. 46 nM corresponded to half-maximal inhibition in the experiment with Gli-Luc/MEF cells (Smo) (IC50).
The corresponding values for `Cn1c(-c2cc(N3CC[C@@H](O)[C@@H](O)C3)ncc2Cl)nc2ccccc21` [Example A-96, (3S,4R)-1-[5-chloro-4-(1-methyl-1H-benzimidazol-2-yl)pyridin-2-yl]piperidine-3,4-diol] are 86%, 46 nM and 16 nM.
On to `Cc1nnc(C2CCN(c3cc(-c4nc5ccccc5n4C)c(Cl)cn3)CC2)o1` [Example A-97, 2-{5-chloro-2-[4-(5-methyl-1,3,4-oxadiazol-2-yl)piperidin-1-yl]pyridin-4-yl}-1-methyl-1H-benzimidazole], for which, in experiment [1], the inhibition at 0.05 µM turned out to be 85% and the IC50 was found to be 32 nM. The compound also had a 50% inhibitory concentration (IC50) in the experiment with Gli-Luc/MEF cells (Smo) of 25 nM.
With `Cn1c(-c2cc(N3CCC(N4CCNC(=O)C4=O)CC3)ncc2Cl)nc2ccccc21` [Example A-98, 1-{1-[5-chloro-4-(1-methyl-1H-benzimidazol-2-yl)pyridin-2-yl]piperidin-4-yl}piperazine-2,3-dione], in experiment [1], the inhibition at 0.05 µM amounted to 85% and the IC50 stood at 122 nM. The compound also registered a half-maximal inhibitory concentration (IC50) with Gli-Luc/MEF cells (Smo) of 66 nM.
The corresponding values for `COCCc1[nH]nc2c1CN(c1cc(-c3nc4ccccc4n3C)c(Cl)cn1)CC2` [Example A-99, 5-[5-chloro-4-(1-methyl-1H-benzimidazol-2-yl)pyridin-2-yl]-3-(2-methoxyethyl)-4,5,6,7-tetrahydro-1H-pyrazolo[4,3-c]pyridine] are 84%, 84 nM and 28 nM.

In general, IC50 refers to the concentration that inhibits the measured activity by half.

(Values after patent publication US20120157471A1, “BENZIMIDAZOLE DERIVATIVES” (PFIZER INC., priority 2009, published 2012).)
